Biological target: T1, 15-LOX-1 (Homo sapiens, UniProt P16050)
T1 sequence (P16050 1-662): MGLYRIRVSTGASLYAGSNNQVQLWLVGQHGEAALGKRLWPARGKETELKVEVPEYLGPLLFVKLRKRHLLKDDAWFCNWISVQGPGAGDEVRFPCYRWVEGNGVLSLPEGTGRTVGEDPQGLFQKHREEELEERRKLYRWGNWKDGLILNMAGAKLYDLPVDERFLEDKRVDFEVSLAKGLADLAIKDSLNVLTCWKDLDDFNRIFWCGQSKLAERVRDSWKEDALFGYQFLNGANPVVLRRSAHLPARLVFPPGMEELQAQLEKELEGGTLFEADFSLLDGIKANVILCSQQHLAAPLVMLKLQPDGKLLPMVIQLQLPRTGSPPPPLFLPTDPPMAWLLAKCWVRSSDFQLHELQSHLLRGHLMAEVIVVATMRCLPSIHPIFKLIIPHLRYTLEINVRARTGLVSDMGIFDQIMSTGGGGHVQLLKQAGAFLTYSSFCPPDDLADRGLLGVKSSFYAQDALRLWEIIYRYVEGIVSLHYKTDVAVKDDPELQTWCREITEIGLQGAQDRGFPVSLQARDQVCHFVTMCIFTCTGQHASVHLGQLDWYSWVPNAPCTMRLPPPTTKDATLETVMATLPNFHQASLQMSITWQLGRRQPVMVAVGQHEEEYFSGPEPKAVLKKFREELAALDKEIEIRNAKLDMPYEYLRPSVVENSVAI
Assay: Kitz-Wilson kinetic analysis of 15-LOX-1 inactivation
Assay type: biochemical
Parameters: His-tag (N); made in house; host or cells: E. coli BL21(DE3)
Protocol: Subsequently, Kitz‐Wilson analysis was performed to distinguish the equilibrium binding constant (K i) from the rate of covalent inactivation (k i). The different bis‐alkynes provided remarkably constant k i’s that varied by a factor 3 or less, whereas the K i’s varied by a factor 200 (Table 1). […] Improved non‐covalent binding is an important characteristic for activity‐based labeling because it implies improved specific recognition properties to the target of interest. Therefore, inhibitor 3 has been used for further development of a probe for activity‐based labeling of lipoxygenase activity with 15‐LOX‐1 as a reference enzyme. For convenient discussion, we named inhibitor 3, “Labelox B”. […]
described in the IC50 determination assay. Michaelis-Menten plots, Lineweaver-Burk plots, Km, and Vmax, are generated using GraphPad Prism 8.3.0.
1.5. Kits-Wilson kinetic analysis
The probes inhibit the 15-LOX-1 enzyme with a two-step reaction. First, a probe binds to an enzyme to get a reversible complex, E*I. The dissociation constant of inhibitor (Ki) is from the formation of E*I. Then, the probe forms a covalent bond with the enzyme, which generates an irreversible complex, E-I. The inactivation rate constant (ki) is to describe the rate of E-I generation. To determine these inactivation parameters, Kitz-Wilson analysis was employed. The procedure has been detailed previously

k i (rate of covalent inactivation): 0.0191 ± 0.0038 min⁻¹
Ki (read-out: K i (equilibrium binding constant)): 500 ± 140 nM
SMILES: CCCCCC#CCC#CCOC(=O)CCCC[C@@H]1SC[C@@H]2NC(=O)N[C@@H]21 [Labelox B (3)]

Reference: article PMC8518382, “Identification of a Bromodomain‐like Region in 15‐Lipoxygenase‐1 Explains Its Nuclear Localization” (Angewandte Chemie (International Ed. in English), 2021)
